{
  "source": "patent US10155742B2",
  "about": "“Halofuginol derivatives and their use in cosmetic and pharmaceutical compositions” (President and Fellows of Harvard College, priority 2012, dated 2018)",
  "key": {"[1]": {"tested_on": "translation in rabbit reticulocyte lysate (RRL)", "test": "In vitro translation assay in rabbit reticulocyte lysate (RRL)", "settings": "for inhibition of translation of luciferase RNA in RRL: luminescence assay, FIG. 2A/2B"}, "[2]": {"biological_target": "T1, ProRS (amino acids 998-1513 of human EPRS) (Homo sapiens, UniProt P07814)", "T1 construct": "Purified 6-his tagged ProRS (amino acids 998-1513 of human EPRS) was immobilized on N-NTA beads; made in house; host or cells: E. coli BL21(DE3), plasmid pKS509", "T1 sequence (P07814 998-1512 limits assumed)": "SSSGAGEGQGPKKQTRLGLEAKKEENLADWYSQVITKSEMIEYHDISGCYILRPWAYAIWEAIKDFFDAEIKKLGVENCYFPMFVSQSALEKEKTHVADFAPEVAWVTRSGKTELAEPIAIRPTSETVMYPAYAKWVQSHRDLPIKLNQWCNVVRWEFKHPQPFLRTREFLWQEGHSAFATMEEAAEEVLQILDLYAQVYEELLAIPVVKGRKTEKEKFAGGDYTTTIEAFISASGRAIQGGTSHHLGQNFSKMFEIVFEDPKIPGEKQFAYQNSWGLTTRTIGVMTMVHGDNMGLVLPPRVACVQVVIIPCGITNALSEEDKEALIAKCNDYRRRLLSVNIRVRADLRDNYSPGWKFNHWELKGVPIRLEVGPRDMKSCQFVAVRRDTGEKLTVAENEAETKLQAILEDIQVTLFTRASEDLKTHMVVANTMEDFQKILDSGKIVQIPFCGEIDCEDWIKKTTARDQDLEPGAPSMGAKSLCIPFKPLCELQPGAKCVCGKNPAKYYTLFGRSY", "test": "[3H]-HFol binding to immobilized ProRS", "settings": "for inhibition of [3H]-HFol binding to ProRS: FIG. 4A", "experimental": "B) [^3H]-HFol binding was assayed as described above in the presence of indicated concentrations of proline. […] IMR90 lung fibroblasts were treated with a siRNAs directed against EPRS (Dharmacon) or a control siRNA mixture for 48 hours, and then treated with HF for 2 hours (pGCN2) and examined for EPRS protein levels, GCN2 total protein and phospho-GCN2 by Western blot. D) EPRS depleted IMR90 cells were compared to control cells with respect to HF induction of the AAR marker CHOP by Q-PCR. Equal concentrations of total cellular protein were loaded in each Western blot lane. CHOP expression was standardized to expression of phosphoglycerate kinase 1 (PGK1) and glyceraldehyde-3-phosphate-dehydrogenase (GAPDH). Data shown are representative of three separate experiments.\nProlyl sulfamoyl adenosine (ProSAd) or alanyl sulfamoyl adenosine (AlaSAd), analogs of the corresponding aminoacyl adenylate, were coincubated with [^3H]-HFol as in FIG. 2. […] Binding of [^3H]-HFol was assayed as in FIG. 3, except that the nucleotide type and concentration was varied as indicated.\nTo examine HF binding to ProRS, ^3H HFol was synthesized by American Radiochemicals (St. Louis) by reduction of MAZ1310 (3) at the ketone with NaB^3H4, followed by removal of the Boc protecting group with 10% trifluoroacetic acid in dichloromethane, and HPLC purification of the ^3H HFol. 100 nM ^3H HFol was incubated with ProRS immobilized on Ni-NTA beads (Pierce) in 50 mM Tris pH 7.5, 5 mM MgCl2, 20 mM Imidazole, 1 mM DTT, 10% glycerol, and nucleotides, proline, or HF derivatives at room temperature for 10 minutes as indicated. After incubation, beads were washed twice with ice-cold wash buffer (50 mM Tris 7.5; 20 mM Imidazole; 1 mM DTT, 20% glycerol). ^3H HFol bound after washing was measured by liquid scintillation counting. Ni-NTA beads incubated with E. coli extracts lacking tagged ProRS were used as a background reference in all experiments."}, "P. falciparum (Dd2)": {"tested_on": "P. falciparum (Dd2)", "test": "In vitro P. falciparum viability assay with excess proline", "format": "cell-based, Plasmodium falciparum", "settings": "Dd2 strain in red blood cells, relative to unmodified RPMI, FIG. 23", "experimental": "The activity of halofuginone and amodiaquine as inhibitors of P. falciparum growth was tested in erythrocytes in RPMI with or without excess amino acids as indicated, and IC50 values were normalized to IC50 values obtained under standard conditions using unmodified RPMI (numbers in bold). The absolute IC50 values for halofuginone and amodiaquine for RPMI are reported in parentheses. Fold amino acid indicated (e.g., “5×”) is relative to the concentration of the respective amino acid in RPMI. Fold concentration of D-Pro and L-Orn are relative to L-Pro.\nIn vitro potency against P. falciparum (DD2) was assessed using a modified version of the method of Plouffe and coworkers (Plouffe et al. Proc. Natl. Acad. Sci. USA 105:9059-64 (2008)). Parasites were cultured in the presence of drug in RPMI (Sigma) containing 4.16 mg/ml Albumax in a total volume of 50 μl at a 2.5% hematocrit and an initial parasitemia of 0.3% in black Greiner GNF clear-bottom plates. Cultures were incubated 72 hr at 37° C. under […], 4% CO2 and 3% O2. At the end of the incubation, SYBR green was added to a dilution of 1:10,000 and plates were stored overnight (or until ready to be read) at −80° C. Just before reading, plates were centrifuged at 700 rpm and fluorescence was read using 480 nm excitation and 530 nm emission frequencies. Compound concentrations that inhibit parasite replication reduce the fluorescence intensity of SYBR green bound to parasite DNA."}, "[3]": {"biological_target": "T2, prolyl tRNA synthetase domain of human EPRS (ProRS) (Homo sapiens, UniProt P07814)", "T2 sequence (P07814 998-1512 limits assumed)": "T1 sequence (P07814 998-1512 limits assumed)", "method": "Activity of the Prolyl tRNA synthetase domain of EPRS (ProRS) was measured as ^3H Pro incorporation into the charged tRNA pool. […] Purified enzyme was visualized as a single band by Laemmli gel electrophoresis/Coomassie staining.\nPurified enzyme was visualized as a single band by Laemmli gel electrophoresis/Coomassie staining. […] In preliminary experiments, the assay was established to be linear over the time (6 min) and conditions used (30 degrees, 2 mM ATP, 1 μg/μl total tRNA purified from rabbit liver).\nFor the rapid, quantitative isolation of aminoacylated tRNA^pro from synthetase reaction mixtures, reactions were stopped with 100 μl of ice cold 20 mM MOPS pH6.2, 200 mM NaCl, 10 mM EDTA, 30% Glycerol and placed on ice. Samples were added to 15 μl of packed Mono Q HP beads (GE Healthcare) equilibrated in the same buffer. Samples were incubated with beads on ice for 10 min, beads were pelleted by 5 sec centrifugation in a tabletop microfuge and washed 3× 1 ml of wash buffer (20 mM MOPS pH6.2, 50 mM NaCl), and recovered pellets counted in a liquid scintillation counter. Background binding of ^3H Pro to beads (using reaction mix with either no enzyme added or no tRNA added) was negligible (20-40 cpm)."}, "[4]": {"tested_on": "primary human prostate stromal (hPrSc) cells, s100a4", "test": "S100A4 mRNA in primary human prostate stromal cells", "format": "cell-based", "settings": "with or without TGF 10 ng/ml, FIG. 28", "experimental": "Primary human prostate stromal (hPrSc) cells were left in low-serum media (0.2%) for 24 hours, and treated consecutively twice for 48 hours with or without tumor-growth factor beta (TGF; 10 ng/ml), halofuginone (HF) or halofuginol (HFol) at the concentrations indicated. Relative mRNA levels of the fibrosis/tissue invasion marker s100a4 was measured by quantitative real-time PCR using glyceraldehyde-3-phosphate dehydrogenase (GAPDH) as internal control."}, "[5]": {"tested_on": "primary human prostate stromal (hPrSc) cells, col1a1", "test": "Type I collagen (col1a1) mRNA in primary human prostate stromal cells", "format": "cell-based", "settings": "treated twice for 48 hours, FIG. 27", "experimental": "Primary human prostate stromal (hPrSc) cells were left in low-serum media (0.2%) for 24 hours, and treated consecutively twice for 48 hours, halofuginone (HF) or halofuginol (HFol) at the concentrations indicated. Relative mRNA levels of the myofibroblastic markeralpha 1 collagen type 1 (col1a1) was measured by quantitative real-time PCR using glyceraldehyde-3-phosphate dehydrogenase (GAPDH) as internal control."}, "[6]": {"tested_on": "Th17 cell differentiation (primary murine CD4+ CD25- T cells)", "test": "Th17 differentiation of T cells", "format": "cell-based, mouse", "settings": "6 nM (3 ng/mL) borrelidin, FIG. 19", "experimental": "A) Primary murine CD4^+ CD25^− T cells were activated through the T-cell receptor in Th17 polarizing conditions (Sundrud et al. Science 324:1334-8 (2009)) in the presence of either 10 nM MAZ1310 or HF and the following amino acid supplements: 10× concentration of essential (EAA) or non-essential (NEAA) amino acids mixtures (Biowhittaker or Invitrogen, respectively), or 10× concentrations (1 mM) of indicated individual amino acids. Data are presented as mean percentage of Th17 (IL-17+ IFNg−) cells +/−SD from triplicate wells. B) Th17 differentiation was assayed as described above, in the absence or presence of HF or borrelidin, with or without 1 mM threonine or proline supplementation. C) MEFs were treated with or without HF (50 nM) and/or proline (2 mM) for 4 hours (CHOP, S100A4) or 24 hours (ColIA1, Col1A2). mRNA expression was normalized to expression of TBP and is shown relative to untreated control. […] Confidence intervals (p-value) for the effect of HF alone versus HF+Pro were determined using a two-tailed Student's t test. […] D) Cells were pre-incubated for 24 hours with HF and proline as indicated, and secretion of Type I procollagen was measured after 24 hours in conditioned medium of cells plated by Western blot and quantitated using Image J software (top panel). Total protein synthesis was measured as TCA-precipitable ^35S in a scintillation counter (bottom panel). […]"}, "[7]": {"settings": "inhibitor 1 μM, anti-myc Western blot, FIG. 2C"}},
  "note": "Entries after “also recorded” stand apart in the source; their conditions may differ. Like-named read-outs stand apart in the source and are kept apart here.",
  "data": [
    {"compound": "O=C(C[C@@H]1NCCC[C@H]1O)Cn1cnc2cc(Br)c(Cl)cc2c1=O", "note": "(single isomer, unassigned) [2S,3R isomer of HF]", "values": [
      {"measurement": "inhibition of translation of luciferase RNA in RRL", "setting": "[1]", "value": "no activity"}
    ]},
    {"compound": "C[C@H](N)C(=O)NS(=O)(=O)OC[C@H]1O[C@@H](n2cnc3c(N)ncnc32)[C@H](O)[C@@H]1O", "note": "[AlaSAd, alanyl sulfamoyl adenosine]", "values": [
      {"measurement": "inhibition of [3H]-HFol binding to ProRS", "setting": "[2]; 50 nM competitor", "value": "partially inhibited"}
    ]},
    {"compound": "O=C(C[C@H]1NCCC[C@@H]1O)Cn1cnc2ccccc2c1=O", "note": "[FF, febrifugine]", "values": [
      {"measurement": "translation of Nopropep (proline-free polypeptide)", "setting": "[1]; [7]", "value": "no effect"},
      {"measurement": "translation of Propep (proline dipeptide containing polypeptide)", "setting": "[1]; [7]", "value": "prevent translation"},
      {"measurement": "inhibition of translation of luciferase RNA in RRL", "setting": "[1]", "value": "inhibited"},
      {"measurement": "fold increase of effective IC50 on addition of 5× proline", "setting": "P. falciparum (Dd2)", "value": "~5", "unit": "fold"}
    ]},
    {"compound": "O=c1c2cc(Cl)c(Br)cc2ncn1C[C@@H](O)C[C@H]1NCCC[C@@H]1O", "note": "[HFolA, halofuginol]", "values": [
      {"measurement": "inhibition of ProRS activity", "setting": "[3]; 3H Pro incorporation into tRNA", "value": "active; also recorded: inhibits; also recorded: potent inhibitor"}
    ]},
    {"compound": "O=c1c2cc(Cl)c(Br)cc2ncn1C[C@H](O)C[C@H]1NCCC[C@@H]1O", "note": "[HFolA, halofuginol]", "values": [
      {"measurement": "expression of the activated fibroblast marker S100A4", "setting": "[4]", "value": "inhibit"},
      {"measurement": "Type 1 collagen expression in fibroblasts in culture", "setting": "[5]", "value": "inhibit"},
      {"measurement": "inhibition of ProRS (EPRS) activity", "setting": "[3]; 100 μM Pro, FIG. 13", "value": "inhibits; also recorded: potency similar to the parent compound"}
    ]},
    {"compound": "CC(C)(C)OC(=O)N1CCC[C@H](O)[C@H]1CC(=O)Cn1cnc2cc(Br)c(Cl)cc2c1=O", "note": "[MAZ1310]", "values": [
      {"measurement": "inhibition of translation of luciferase RNA in RRL", "setting": "[1]", "value": "no activity"},
      {"measurement": "inhibition of ProRS activity", "setting": "[3]; 14C Proline used as trace label, FIG. 9", "value": "does not block; also recorded: no inhibitory effect"}
    ]},
    {"compound": "Nc1ncnc2c1ncn2[C@@H]1O[C@H](COS(=O)(=O)NC(=O)[C@@H]2CCCN2)[C@@H](O)[C@H]1O", "note": "[ProSAd, 5-O—[N-(L-prolyl)-sulfamoyl]adenosine]", "values": [
      {"measurement": "inhibition of [3H]-HFol binding to ProRS", "setting": "[2]; 10 nM competitor", "value": "inhibited"}
    ]},
    {"compound": "[3H][C@@](O)(C[C@H]1NCCC[C@@H]1O)Cn1cnc2cc(Br)c(Cl)cc2c1=O", "note": "[[^3H]-HFol]", "values": [
      {"measurement": "direct binding to immobilized ProRS", "setting": "[2]; 5 mM MgCl2, 2 mM ATP, 10 min RT", "value": "bound directly"}
    ]},
    {"compound": "CCN(CC)Cc1cc(Nc2ccnc3cc(Cl)ccc23)ccc1O", "note": "[amodiaquine]", "values": [
      {"measurement": "fold increase of effective IC50 on addition of 5× proline", "setting": "P. falciparum (Dd2)", "value": "did not affect"}
    ]},
    {"compound": "C[C@@H]1C[C@H](C)C[C@H](C)[C@@H](O)CC(=O)O[C@H]([C@@H]2CCC[C@H]2C(=O)O)C/C=C/C=C(/C#N)[C@H](O)[C@@H](C)C1", "note": "[borrelidin]", "values": [
      {"measurement": "inhibition of Th17 cell differentiation", "setting": "[6]", "value": "selectively inhibits"},
      {"measurement": "inhibition of Th17 cell differentiation", "setting": "[6]; listed as Borrelidin", "value": "inhibited"}
    ]}
  ]
}
